Key:
angiotensin II receptor = target: T1, angiotensin II receptor (Rattus norvegicus, UniProt P25095); experiment: Test on the angiotensin II receptor (displacement of I^125 angiotensin II, rat liver membranes); type: binding; conditions: 25° C., 150 minutes, read-out: IC50 (50% inhibiting concentration, displacement of specific radioactivity fixed on the receptor)
T1 construct: A fresh membrane preparation obtained from the liver of a rat is used; from tissue; host or cells: rat liver, fresh membrane preparation
T1 sequence (P25095 1-359): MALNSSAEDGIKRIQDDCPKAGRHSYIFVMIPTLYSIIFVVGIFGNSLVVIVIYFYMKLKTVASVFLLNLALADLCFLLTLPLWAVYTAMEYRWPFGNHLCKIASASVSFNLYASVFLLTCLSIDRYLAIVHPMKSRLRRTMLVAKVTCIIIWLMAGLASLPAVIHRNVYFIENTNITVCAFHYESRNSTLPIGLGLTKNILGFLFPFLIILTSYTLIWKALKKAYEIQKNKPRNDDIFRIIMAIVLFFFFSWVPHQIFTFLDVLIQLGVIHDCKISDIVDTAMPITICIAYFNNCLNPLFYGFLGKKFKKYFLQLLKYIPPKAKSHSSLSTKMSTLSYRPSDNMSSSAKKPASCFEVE
Protocol: 1 - Test on the angiotensin II receptor
A fresh membrane preparation obtained from the liver of a rat is used. The tissue is ground up in a polytron in a Tris 50 mM buffer pH 7.4, the grinding is followed by 3 centrifugations at 30,000 g for 15 minutes, the deposits being taken up in between in the Tris buffer pH 7.4.
The last deposits are put in suspension in an incubation buffer (Tris 20 mM, NaCl 135 mM, […], KCl 10 mM, glucose 5 mM, MgCl2 10 mM PMSF 0.3 mM, bacitracin 0.1 mM, BSA 0.2%).
Aliquoted fractions of 2 ml are divided into hemolysis tubes and I^125 angiotensin II (25,000 DPM per tube) and the product to be studied are added. (The product is first tested at 3×10^-5 M three times). When the tested product displaces by more than 50% the radioactivity linked specifically to the receptor, it is tested again according to a range of 7 doses in order to determine the dose which inhibits by 50% the radioactivity linked specifically to the receptor. In this way the 50% inhibiting concentration is determined.
The non-specific bond is determined by addition of the product of Example 94 of the European Patent 0,253,310, at 10^-5 M (three times). The medium is incubated at 25° C. for 150 minutes, put in a water bath at 0° C. for 5 minutes, filtered under vacuum, rinsed with Tris buffer pH 7.4 and the radioactivity is counted in the presence of scintillating Triton.
The result is expressed directly as the 50% inhibiting concentration (IC50), that is as the concentration of studied product, expressed in nM, necessary to displace 50% of the specific radioactivity fixed on the receptor studied.

[1] = test system: angiotensin II (response of the isolated portal vein); experiment: Antagonistic activity of angiotensin II on the isolated portal vein; conditions: portal vein of male Wistar rats; angiotensin II 3.10^-8 M; compound 15 minutes before; 37° C.; verapamil 1.10^-6 M; read-out: IC50 (dose which produces a 50% inhibition of the response to angiotensin)
Protocol: The portal vein of male Wistar rats (about 350 g) (IFFA Credo France) is removed after cervical dislocation and placed rapidly in a physiological solution (see below) at ambient temperature. A ring of about 1 mm is mounted in a bath with an isolation mechanism, containing 20 ml of the following physiological solution (composition in mM: NaCl 118.3 - KCl 4.7 - MgSO4 1.2 - KH2 PO4 1.2 - NaHCO3 25 - glucose 11.1 - CaCl2 2.5), the medium is maintained at 37° C. and oxygenated with an oxygen (95%), carbon dioxide (5%) mixture. The initial pressure imposed is 1 g, the rings are left at rest for 60 to 90 minutes. In order to avoid spontaneous contractions, verapamil is added to the incubation bath (1.10^-6 M).
At the end of the rest period angiotensin II (Ciba hypertensin) 3.10^-8 M is added to the incubation bath and left in contact with the preparation for one minute. This operation is repeated every 30 minutes, the tissue being washed 3 or 4 times between two stimulations by angiotensin. The compound to be studied is introduced into the bath 15 minutes before a new stimulation by angiotensin. Increasing concentrations of the product to be studied are used and the IC50 (dose which produces a 50% inhibition of the response to angiotensin) of the product to be studied is calculated, this is expressed in nanomoles.

[2] = test system: angiotensin II (pressure effects); experiment: Test for antagonistic activity of angiotensin II in a demedullated rat; type: in vivo; conditions: iv, demedullated male Sprague-Dawley rats, jugular vein injection 5 minutes before angiotensin II (0.75 micrograms/kg), diastolic arterial pressure, read-out: IC50 (dose which inhibits by 50% the pressure effects of angiotensin II)
Protocol: 3 - Test for antagonistic activity of angiotensin II in a demedullated rat
Male Sprague-Dawley rats (250 to 350 g) are anaesthetized by an intra-peritoneal injection of sodium pentobarbital (60 mg/kg). The diastolic arterial pressure is recorded by means of a heparinized catheter (PE50) introduced into the left carotid of the animal, and connected to a pressure calculator (Gould, Pressure Processor) by means of a Gould pressure sensor,
A catheter is introduced into the right jugular vein of the animal in order to allow the injection of the molecules to be studied.
The animal is placed under assisted respiration. A bilateral section of the pneumogastric nerves is carried out. The rat is then demedullated.
After a suitable period of stabilization, the study of the antagonism of the molecules vis- -vis angiotensin II (CIBA Hypertensin) is approached in the following manner:
1 - Three consecutive injections of angiotensin II (0.75 micrograms/kg) spaced 15 minutes apart permits a reproducible and stable pressure response to be obtained.
2 - While keeping a time interval of 15 minutes for the administration of angiotensin II, the molecules (0.01 to 10 mg/kg) are injected 5 minutes before the angiotensin II.
The pressure effects of angiotensin II in the presence of the antagonist are expressed as a percentage of the pressure effects of angiotensin II administered on its own. The dose which inhibits the studied effect by 50% is thus determined.
Each animal is considered to be its own control.

In the case of `CCCCc1nc([S+]([O-])c2ccccc2)c(C(=O)O)n1Cc1ccc(-c2ccccc2C(=O)O)cc1` (stereo not drawn) [Example 28, 2-butyl-1-[[2'-carboxy-(1,1'-biphenyl)-4-yl]-methyl]-4-(phenylsulphinyl)-1H-imidazole-5-carboxylic acid], the IC50 (angiotensin II receptor) is reported as 10.2 nM.
With `CCCCc1nc(S(C)(=O)=O)c(C(=O)O)n1Cc1ccc(-c2ccccc2-c2nn[nH]n2)cc1` [Example 84] the IC50 (angiotensin II receptor) was 0.8 nM.
In the case of `CCCCc1nc(Sc2ccccc2)c(C(=O)O)n1Cc1ccc(-c2ccccc2C(=O)O)cc1` [Example 20, 2-butyl-1-[[2'-carboxy-(1,1'-biphenyl)-4-yl]-methyl]-4-(phenylthio)-1H-imidazole-5-carboxylic acid], the IC50 (angiotensin II receptor) is reported as 17 nM and the IC50 [1] is reported as 5 nM.
In the case of `CCCCc1nc(S(C)(=O)=O)c(C(=O)O)n1Cc1ccc(-c2ccccc2-c2nn[nH]n2)cc1` [Example 83], the IC50 (angiotensin II receptor) is reported as 1.3 nM, the IC50 [1] is reported as 0.21 nM and the ED50 [2] is reported as 0.022 mg/kg.
With `CCCCc1nc(SCc2ccc(OC)cc2)c(C(=O)O)n1Cc1ccc(-c2ccccc2C(=O)O)cc1` [Example 70] the IC50 (angiotensin II receptor) was 3.6 nM, the IC50 [1] was 0.56 nM and the ED50 [2] was 0.33 mg/kg.
`CCCCc1nc(S(=O)(=O)c2ccccc2)c(C(=O)O)n1Cc1ccc(-c2ccccc2C(=O)O)cc1` [Example 26, 2-butyl-1-[[2'-carboxy-(1,1'-biphenyl)-4-yl]-methyl]-4-(phenylsulphonyl)-1H-imidazole-5-carboxylic acid] gave an IC50 (angiotensin II receptor) of 47 nM.
For `CCCCc1nc(SCc2ccccc2)c(CO)n1Cc1ccc(-c2ccccc2C(=O)O)cc1` [Example 74], the IC50 (angiotensin II receptor) was 5.8 nM, the IC50 [1] was 2 nM and the ED50 [2] was 0.34 mg/kg.
Work on `CCCCc1nc(Sc2ccccc2)c(C(=O)O)n1Cc1ccc(-c2ccccc2-c2nn[nH]n2)cc1` [Example 92] yielded an IC50 (angiotensin II receptor) of 0.5 nM and an ED50 [2] of 0.08 mg/kg.
Work on `CCCCc1nc(SCC)c(C(=O)O)n1Cc1ccc(-c2ccccc2C(=O)O)cc1` [Example 6, 2-butyl-1-[[2'-carboxy-(1,1'-biphenyl)-4-yl]-methyl]-4-(ethylthio)-1H-imidazole-5-carboxylic acid] yielded an IC50 [1] of 13 nM.
With `CCCCc1nc(S(=O)(=O)CC)c(C(=O)O)n1Cc1ccc(-c2ccccc2C(=O)O)cc1` [Example 18, 2-butyl-1-[[2'-carboxy-(1,1'-biphenyl)-4-yl]-methyl]-4-(ethylsulphonyl)-1H-imidazole-5-carboxylic acid] the ED50 [2] was 0.79 mg/kg.
`CCCCc1nc(SCC)c(CO)n1Cc1ccc(-c2ccccc2C(=O)O)cc1` [Example 14, 4'-[[2-butyl-4-(ethylthio)-5-(hydroxymethyl)-1H-imidazol-1-yl]-methyl]-(1,1'-biphenyl)-2-carboxylic acid] showed an IC50 [1] of 10 nM and an ED50 [2] of 0.78 mg/kg.
`CCCCc1nc(SC)c(C(=O)O)n1Cc1ccc(-c2ccccc2C(=O)O)cc1` [Example 22, 2-butyl-1-[[2'-carboxy-(1,1'-biphenyl)-4-yl]-methyl]-4-(methylthio)-1H-imidazole-5-carboxylic acid] gave an IC50 (angiotensin II receptor) of 49 nM, an IC50 [1] of 8 nM and an ED50 [2] of 0.47 mg/kg.
`CCCCc1nc(SC)c(C(=O)OCOC(=O)C(C)(C)C)n1Cc1ccc(-c2ccccc2-c2nn[nH]n2)cc1` [Example 106] showed an ED50 [2] of 0.04 mg/kg.
`CCCCc1nc(SCc2ccccc2)c(C(=O)O)n1Cc1ccc(-c2ccccc2C(=O)O)cc1` [Example 48, 2-butyl-1-[[2'-carboxy-(1,1'-biphenyl)-4-yl]-methyl]-4-[(phenylmethyl)-thio]-1H-imidazole-5-carboxylic acid] was tested, and the IC50 (angiotensin II receptor) was 5.7 nM and the IC50 [1] was 0.9 nM.
`CCCCc1nc(SC)c(C(=O)O)n1Cc1ccc(-c2ccccc2-c2nnn[nH]2)cc1` [Example 51, 2-butyl-4-(methylthio)-1-[[2'-(1H-tetrazol-5-yl)-(1,1'-biphenyl)-4-yl]-methyl]-1H-imidazole-5-carboxylic acid] was tested, and the IC50 (angiotensin II receptor) was 1.9 nM, the IC50 [1] was 0.14 nM and the ED50 [2] was 0.054 mg/kg.
With `CCCCc1nc([S+]([O-])CC)c(C(=O)O)n1Cc1ccc(-c2ccccc2C(=O)O)cc1` (stereo not drawn) [Example 16, 2-butyl-1-[[2'-carboxy-(1,1'-biphenyl)-4-yl]-methyl]-4-(ethylsulphinyl)-1H-imidazole-5-carboxylic acid] the ED50 [2] was 0.29 mg/kg.

Source: patent publication US5684028A, “Sulphorous derivatives of imidazole, their preparation process, the new intermediates obtained, their use as medicaments and the pharmaceutical compositions” (Roussel UCLAF, priority 1990, dated 1997)
